Measurements published in US20070249620A1, “Urea Derivative” (priority 2004, published 2007).

Compound	melting point
COc1ccc(F)cc1NC(=O)Nc1ccc(N2CCN(C(=O)OC(C)(C)C)CC2)cc1 [Example 44, 4-{4-[3-(5-fluoro-2-methoxy-phenyl)-ureido]-phenyl}-piperazine-1-carboxylic acid tert-butyl ester]	200 to 202 °C
COc1ccc(F)cc1NC(=O)Nc1ccc(N2CCN(C(=O)OC(C)(C)C)CC2)nc1 [Example 45, 4-{5-[3-(5-fluoro-2-methoxy-phenyl)-ureido]-pyridin-2-yl}-piperazine-1-carboxylic acid tert-butyl ester]	200 to 201 °C
COc1ccc(C)cc1NC(=O)Nc1ccc(N2CCN(C(=O)Oc3ccccc3)CC2)cc1 [Example 47, 4-{4-[3-(2-methoxy-5-methyl-phenyl)-ureido]-phenyl}-piperazine-1-carboxylic acid phenyl ester]	179 °C
COc1ccc(C)cc1NC(=O)Nc1ccc(N2CCN(C(=O)C3CCCCC3)CC2)cc1 [Example 48, 1-[4-(4-cyclohexanecarbonyl-piperazin-1-yl)-phenyl]-3-(2-methoxy-5-methyl-phenyl)-urea]	222 °C
COc1ccc(C)cc1NC(=O)Nc1ccc(N2CCN(C(=O)Nc3ccccc3)CC2)cc1 [Example 49, 4-{4-[3-(2-methoxy-5-methyl-phenyl)-ureido]-phenyl}-piperazine-1-carboxylic acid phenylamide]	221 °C
COc1ccc(C)cc1NC(=O)Nc1ccc(N2CCN(C(=O)NCc3ccccc3)CC2)cc1 [Example 50, 4-{4-[3-(2-methoxy-5-methyl-phenyl)-ureido]-phenyl}-piperazine-1-carboxylic acid benzylamide]	224 °C
COc1ccc(C)cc1NC(=O)Nc1ccc(N2CCN(C(N)=O)CC2)cc1 [Example 51, 4-{4-[3-(2-methoxy-5-methyl-phenyl)-ureido]-phenyl}-piperazine-1-carboxylic acid amide]	136 °C
COc1ccc(C)cc1NC(=O)Nc1ccc(N2CCN(C(=O)Nc3ccccc3F)CC2)cc1 [Example 52, 4-{4-[3-(2-methoxy-5-methyl-phenyl)-ureido]-phenyl}-piperazine-1-carboxylic acid (2-fluoro-phenyl)-amide]	200 to 201 °C
COc1ccc(C)cc1NC(=O)Nc1ccc(N2CCN(C(=O)Nc3c(F)cccc3F)CC2)cc1 [Example 55, 4-{4-[3-(2-methoxy-5-methyl-phenyl)-ureido]-phenyl}-piperazine-1-carboxylic acid (2,6-difluoro-phenyl)-amide]	224 °C
COc1ccc(C)cc1NC(=O)Nc1ccc(N2CCN(C(=O)Nc3ccccc3Cl)CC2)cc1 [Example 56, 4-{4-[3-(2-methoxy-5-methyl-phenyl)-ureido]-phenyl}-piperazine-1-carboxylic acid (2-chloro-phenyl)-amide]	> 240 °C (dec.)
CCc1cccc(C)c1NC(=O)N1CCN(c2ccc(NC(=O)Nc3cc(C)ccc3OC)cc2)CC1 [Example 63, 4-{4-[3-(2-methoxy-5-methyl-phenyl)-ureido]-phenyl}-piperazine-1-carboxylic acid (2-ethyl-6-methyl-phenyl)-amide]	207 to 209 °C
COc1ccc(Cl)cc1NC(=O)Nc1ccc(N2CCN(C(=O)Nc3ccccc3F)CC2)cc1 [Example 67, 4-{4-[3-(5-chloro-2-methoxy-phenyl)-ureido]-phenyl}-piperazine-1-carboxylic acid (2-fluoro-phenyl)-amide]	218 to 220 °C
COc1ccc(Cl)cc1NC(=O)Nc1ccc(N2CCN(C(=O)Nc3ccccc3C(F)(F)F)CC2)cc1 [Example 68, 4-{4-[3-(5-chloro-2-methoxy-phenyl)-ureido]-phenyl}-piperazine-1-carboxylic acid (2-trifluoromethyl-phenyl)-amide]	213 to 214 °C
COc1ccc(Cl)cc1NC(=O)Nc1ccc(N2CCN(C(=O)Nc3ccccc3C)CC2)cc1 [Example 69, 4-{4-[3-(5-chloro-2-methoxy-phenyl)-ureido]-phenyl}-piperazine-1-carboxylic acid o-tolylamide]	230 to 232 °C
